Holding throughout (assay): inhibition of tumour cell growth, NCI panel, 48 h
Assay [1] concerns A498 renal.
For assay [2], the system named is SK-OV-3 ovarian.
Assay [3] relates to MOLT-4 leukemia.
Assay [4] has as its system MDA-MB-231 breast.
Assay [5] relates to K-562 leukemia.
Assay [6] relates to MDA-MB-435.
The test system of assay [7] is HL-60(TB) leukemia.
The subject of assay [8] is SNB-75 CNS.
The subject of assay [9] is HCC-2998 colon.
The subject of assay [10] is OVCAR-4 ovarian.

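Briefly, cells in 96-well plates were exposed to five compound concentrations for 48 h, and endpoints were estimated by linear interpolation. Definition used: TGI = concentration required for complete inhibition of growth.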

Data on 14 compounds can be found in PubChem BioAssay (NCI).

As for `CC1=NNC(=O)C1C1C(=O)NN=C(c2c[nH]c3ccccc23)C1Br` (stereo unspecified), the TGI in assay [1] was more than 100 µM; in [2], more than 100 µM; in assay [3], 80.3 µM; in assay [4] it was more than 100 µM; in assay [5] it was more than 100 µM; in assay [6] it was more than 100 µM. The TGI in assay [7] was more than 100 µM; in [8], 58.9 µM.

For `COc1ccc(N2C(=O)C3c4[nH]c5ccc(OCc6ccccc6)cc5c4C4CCC(c5ccccc5)CC4C3C2=O)cc1` (stereo unspecified), the TGI in assay [1] is 50.4 µM; in [2], 22.6 µM; in assay [9], more than 100 µM; in assay [3] it was more than 36.8 µM; in assay [4] it was 27.3 µM; in [5] it was 12 µM. Further, the TGI in [6] stood at 12.1 µM; in assay [7], 33.3 µM; in [10], 3.04 µM; in assay [8], 27.2 µM.

Take `CCOC(=O)c1c(C)n(Cc2ccc(Cl)cc2Cl)c2c1cc(O)c1[nH]c3c(c12)CCCC3`: the TGI was 38.6 µM in assay [1]; more than 100 µM in assay [2]; 63 µM in assay [9]; 29.4 µM in assay [3]; more than 100 µM in assay [4]; 55.5 µM in assay [6]. For the same compound, the TGI in [7] was 2.79 µM; in [10] it was 41.7 µM; in [8], 48.6 µM.

Consider `Cc1ccc2c(c1)-c1nc(N)c(C#N)c(-c3ccc(Cl)cc3)c1CCS2(=O)=O`, for which the TGI in [1] was 92.1 µM; in assay [9] it was more than 100 µM; in assay [4], more than 100 µM; in assay [6], more than 100 µM; in assay [7], 47 µM; in assay [10] it was more than 100 µM. The compound further returned a TGI in [8] of more than 100 µM.

Consider `OC1[C@@H]2[C@@H](O)CCCN2C[C@@H](O)[C@H]1O` (stereo partly specified), for which the TGI in assay [1], in assay [2], in assay [9], in [3], in assay [4] and in assay [5] was more than 100 µM throughout. The TGI in assay [6], in assay [7], in assay [10] and in [8] was more than 100 µM in each case.

With `Cc1ccc2nc(SCC(=O)N=Nc3c(O)[nH]c4ccccc34)n(-c3ccccc3)c(=O)c2c1`, the TGI in [1] turned out to be 28.1 µM; in [2], 26.7 µM; in assay [9], 28.6 µM; in assay [3] it was 33.2 µM; in assay [4] it was 22.8 µM; in assay [5], 61.9 µM. Also, the figures for the TGI in [6], in [7] and in assay [10] were 33.7 µM, 62.2 µM and 25.9 µM, respectively.

`CC12CCC(CC(=O)/C1=C(/Br)I)C2(C)C` (stereo unspecified): the TGI was 33.7 µM in assay [1]; 45.4 µM in assay [2]; 23.9 µM in [3]; 17.6 µM in assay [4]; 26.4 µM in [5]; 28.6 µM in assay [6]. The TGI in assay [7] was determined as 12 µM; in [10], 29.1 µM; in assay [8] it was 31 µM.

With `O=C1C=CC(=O)c2c1ccc1c3ccccc3n(Cc3ccc([N+](=O)[O-])cc3)c21`, the TGI in assay [2] was more than 100 µM; in [9], more than 100 µM; in [3], 54.2 µM; in assay [4], more than 100 µM; in assay [5], 48.8 µM; in [6], more than 100 µM. Also, the TGI in [7] was 33.2 µM; in assay [10], more than 100 µM; in assay [8], more than 100 µM.

`O=c1[nH]c(Nc2ccccc2)nc2c1ncn2CC(O)CSCCO` (stereo unspecified): the TGI in assay [1], in [2], in [9], in [3], in [4] and in assay [6] was more than 100 µM throughout. The TGI in assay [7], in [10] and in [8] was more than 100 µM each time.

On to `CCN(CCCOc1ccccc1)CCN(CC)CCCOc1ccccc1`, for which the TGI in assay [9] came out at 48.4 µM; in assay [3] it was 16.8 µM; in assay [4], 39.7 µM; in [5], 15.5 µM; in [6] it was 34.2 µM; in assay [7] it was 25.4 µM. For the same compound, the TGI stood at 37.5 µM in assay [10] and 48.6 µM in [8].

As for `COc1cccc(N2C(=O)CSC2c2cccc(Oc3ccccc3)c2)c1` (stereo unspecified), the TGI in assay [1] is 9.33 µM; in assay [2], more than 100 µM; in assay [9], 7.23 µM; in [3], 28.4 µM; in assay [4] it was 79.1 µM; in assay [5], 11.4 µM. Besides, the TGI is more than 100 µM in assay [6], 66.5 µM in assay [7], 87.5 µM in [10] and 39.5 µM in [8].

On to `O=[N+]([O-])c1ccccc1OCCOc1ccccc1[N+](=O)[O-]`, for which the TGI in assay [1], in assay [2], in assay [9], in assay [3], in assay [4] and in assay [5] was more than 100 µM in each case. The TGI in [6], in assay [7], in [10] and in assay [8] was more than 100 µM in each case.

On to `O=S1(=O)c2ccccc2Oc2ccc(C(/C=N/O)=N/O)cc21`, for which the TGI is more than 100 µM in assay [2]; more than 100 µM in assay [3]; more than 100 µM in assay [4]; more than 100 µM in assay [5]; 52.4 µM in assay [6]; 47.3 µM in assay [7]. For the same compound, the TGI in assay [10] and in assay [8] was more than 100 µM each time.

For `Cc1ccc(Nc2nc3[nH]ccc3c(=O)[nH]2)cc1`, the TGI in assay [1], in assay [2], in assay [9], in assay [3], in assay [4] and in assay [5] was more than 100 µM each time. Further, the TGI in [6] is more than 100 µM; in assay [7], more than 100 µM; in assay [10], more than 100 µM; in [8] it was 49.9 µM.
